Data taken from ChEMBL document CHEMBL3627624, “New natural product carbonic anhydrase inhibitors incorporating phenol moieties” (Bioorg Med Chem, 2015).
pKi: −log10 of the molar value.

Columns and labels:
[1] = target: T1, Carbonic anhydrase 2 (Homo sapiens, UniProt P00918); experiment: Inhibition of human recombinant carbonic anhydrase 2 preincubated for 15 mins at room temperature/6 hrs at 4 deg C by stopped-flow CO2 hydration assay
[2] = target: T2, Carbonic anhydrase 12 (Homo sapiens, UniProt O43570); experiment: Inhibition of human recombinant carbonic anhydrase 12 preincubated for 15 mins at room temperature/6 hrs at 4 deg C by stopped-flow CO2 hydration assay
[3] = target: T3, Carbonic anhydrase 4 (Homo sapiens, UniProt P22748); experiment: Inhibition of human recombinant carbonic anhydrase 4 preincubated for 15 mins at room temperature/6 hrs at 4 deg C by stopped-flow CO2 hydration assay
[4] = target: T4, Carbonic anhydrase 1 (Homo sapiens, UniProt P00915); experiment: Inhibition of human recombinant carbonic anhydrase 1 preincubated for 15 mins at room temperature/6 hrs at 4 deg C by stopped-flow CO2 hydration assay
[5] = target: Carbonic anhydrase 7 (Homo sapiens, UniProt P43166); experiment: Inhibition of human recombinant carbonic anhydrase 7 preincubated for 15 mins at room temperature/6 hrs at 4 deg C by stopped-flow CO2 hydration assay
[6] = target: T2, Carbonic anhydrase 12; experiment: Inhibition of human recombinant carbonic anhydrase 12
[7] = target: T1, Carbonic anhydrase 2; experiment: Inhibition of human recombinant carbonic anhydrase 2
[8] = target: T4, Carbonic anhydrase 1; experiment: Inhibition of human recombinant carbonic anhydrase 1
[9] = target: T3, Carbonic anhydrase 4; experiment: Inhibition of human recombinant carbonic anhydrase 4

Sequence of Carbonic anhydrase 7 (P43166 whole entry): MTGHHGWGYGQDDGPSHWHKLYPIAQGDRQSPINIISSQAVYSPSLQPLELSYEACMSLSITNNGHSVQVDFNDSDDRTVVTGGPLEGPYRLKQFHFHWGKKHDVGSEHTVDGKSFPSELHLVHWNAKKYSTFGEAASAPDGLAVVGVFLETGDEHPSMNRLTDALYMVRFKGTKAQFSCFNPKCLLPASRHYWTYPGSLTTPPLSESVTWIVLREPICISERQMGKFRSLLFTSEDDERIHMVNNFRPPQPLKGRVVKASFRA
T3 sequence (P22748 whole entry): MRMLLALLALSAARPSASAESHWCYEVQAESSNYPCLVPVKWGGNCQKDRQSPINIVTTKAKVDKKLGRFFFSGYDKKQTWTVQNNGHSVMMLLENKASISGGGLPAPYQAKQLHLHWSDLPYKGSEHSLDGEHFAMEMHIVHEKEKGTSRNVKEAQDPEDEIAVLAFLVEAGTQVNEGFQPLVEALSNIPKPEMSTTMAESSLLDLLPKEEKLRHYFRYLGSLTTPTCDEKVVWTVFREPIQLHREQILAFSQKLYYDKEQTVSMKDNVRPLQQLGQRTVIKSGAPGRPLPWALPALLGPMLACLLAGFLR
T4 sequence (P00915 whole entry): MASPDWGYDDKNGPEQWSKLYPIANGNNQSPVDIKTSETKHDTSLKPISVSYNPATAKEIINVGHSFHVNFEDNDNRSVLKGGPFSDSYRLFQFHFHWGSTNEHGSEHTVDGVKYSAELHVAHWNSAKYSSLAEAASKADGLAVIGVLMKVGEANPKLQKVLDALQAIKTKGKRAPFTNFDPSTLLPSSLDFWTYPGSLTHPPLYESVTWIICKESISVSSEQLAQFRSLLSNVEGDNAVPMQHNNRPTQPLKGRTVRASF
T2 sequence (O43570 whole entry): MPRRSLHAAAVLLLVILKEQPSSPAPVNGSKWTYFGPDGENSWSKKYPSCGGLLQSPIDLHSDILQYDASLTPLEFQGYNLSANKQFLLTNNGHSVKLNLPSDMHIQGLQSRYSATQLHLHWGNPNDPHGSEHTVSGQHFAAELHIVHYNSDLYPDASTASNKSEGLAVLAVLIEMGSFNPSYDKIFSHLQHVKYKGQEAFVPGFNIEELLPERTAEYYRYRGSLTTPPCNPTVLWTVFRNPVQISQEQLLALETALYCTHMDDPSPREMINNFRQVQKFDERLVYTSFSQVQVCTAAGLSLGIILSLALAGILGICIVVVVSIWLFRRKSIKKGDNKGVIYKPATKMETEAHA

Compound | pKi [1] | pKi [2] | pKi [3] | pKi [4] | pKi [5] | pKi [6] | pKi [7] | pKi [8] | pKi [9]
O=C(/C=C/c1ccc(O)cc1)OC[C@H]1O[C@@H](Oc2c(-c3ccc(O)cc3)oc3cc(O)cc(O)c3c2=O)[C@H](OC(=O)/C=C/c2ccc(O)cc2)[C@@H](O)[C@@H]1O | 5.06 | 6.39 | 6.46 | < 5.00 | 8.33 |  |  |  | 
CC(=O)O[C@@H]1[C@@H](OC(=O)/C=C/c2ccc(O)cc2)[C@H](Oc2c(-c3ccc(O)cc3)oc3cc(O)cc(O)c3c2=O)O[C@H](COC(=O)/C=C/c2ccc(O)cc2)[C@H]1OC(C)=O | 5.16 | 6.40 | 7.21 | < 5.00 | 7.58 |  |  |  | 
O=c1c(-c2ccc(O)cc2)coc2cc(O)ccc12 [DAIDZEIN] | < 5.00 | 7.25 | 6.14 | < 5.00 | 8.38 |  |  |  | 
COc1cc(-c2oc3cc(O)cc(O)c3c(=O)c2O)ccc1O [ISORHAMNETIN] | < 5.00 | 7.26 | 6.67 | < 5.00 | 8.36 | 6.66 | 6.36 | < 5.00 | 
O=c1c(O)c(-c2ccc(O)cc2)oc2cc(O)cc(O)c12 [KAEMPFEROL] | 5.02 | 6.84 | < 5.00 | < 5.00 | 7.60 |  |  |  | 
O=c1cc(-c2ccc(O)c(O)c2)oc2cc(O)cc(O)c12 [LUTEOLIN] | 5.43 | 7.22 |  | < 5.00 | 8.33 |  |  |  | 6.53
O=C1C[C@@H](c2ccc(O)cc2)Oc2cc(O)cc(O)c21 [NARINGENIN] | < 5.00 | 7.35 | 7.10 | < 5.00 | 8.37 |  |  |  | 
O=c1c(-c2ccc(O)cc2)coc2c([C@@H]3O[C@H](CO)[C@@H](O)[C@H](O)[C@H]3O)c(O)ccc12 [PUERARIN] | < 5.00 |  | < 5.00 | < 5.00 | 6.34 |  |  |  | 
C[C@@H]1O[C@@H](Oc2c(-c3ccc(O)c(O)c3)oc3cc(O)cc(O)c3c2=O)[C@H](O)[C@H](O)[C@H]1O [QUERCETIN-3-O-RHAMNOSIDE] | 5.20 | 7.36 | 7.17 | < 5.00 | 8.41 |  |  |  | 
O=C(/C=C/c1ccc(O)cc1)OC[C@H]1O[C@@H](Oc2c(-c3ccc(O)cc3)oc3cc(O)cc(O)c3c2=O)[C@H](O)[C@@H](O)[C@@H]1O [TILIROSIDE] | < 5.00 | 6.87 | 5.26 | < 5.00 | 8.34 |  |  |  | 

Continued, in another order:

pKi [1] | pKi [2] | pKi [3] | pKi [4] | pKi [5] | Compound | pKi [6] | pKi [7] | pKi [8] | pKi [9]
 |  |  | < 5.00 |  | O=C1c2c(O)cc(O)cc2O[C@H](c2ccc(O)c(O)c2)[C@H]1O [(+)-TAXIFOLIN] |  |  |  | 
6.77 | 8.31 | 5.25 | < 5.00 | 6.37 | O=c1c(O[C@@H]2O[C@H](CO)[C@@H](O)[C@H](O)[C@H]2O)c(-c2ccc(O)cc2)oc2cc(O)cc(O)c12 [ASTRAGALIN] |  |  |  | 
< 5.00 | 7.28 | 5.15 | < 5.00 | 6.43 | COc1ccc(-c2coc3cc(O)cc(O)c3c2=O)cc1 [BIOCHANIN] |  |  |  | 
< 5.00 | 7.46 | 6.27 | < 5.00 | 6.77 | O=c1cc(-c2ccccc2)oc2cc(O)cc(O)c12 [CHRYSIN] |  |  |  | 
< 5.00 | 7.51 | 7.14 | < 5.00 | 8.37 | O=C1C[C@@H](c2ccc(O)c(O)c2)Oc2cc(O)cc(O)c21 [ERIODICTYOL] |  |  |  | 
< 5.00 | 7.38 | 6.25 | < 5.00 | 7.61 | O=c1c(O)c(-c2ccccc2)oc2cc(O)cc(O)c12 [GALANGIN] |  |  |  | 
< 5.00 | 6.34 | 6.99 | < 5.00 | 8.48 | COc1ccc([C@@H]2CC(=O)c3c(O)cc(O)cc3O2)cc1O [HESPERETIN] |  |  |  | 
5.21 | 7.28 | 7.12 | < 5.00 | 8.42 | O=c1c(O[C@@H]2O[C@H](CO)[C@@H](O)[C@H](O)[C@H]2O)c(-c2ccc(O)c(O)c2)oc2cc(O)cc(O)c12 [ISOQUERCETIN] | 6.77 | 6.39 | < 5.00 | 
< 5.00 |  | 6.99 | < 5.00 | 6.57 | O=C(/C=C/c1ccc(O)c2c1[C@H](C(=O)O)[C@@H](c1ccc(O)c(O)c1)O2)O[C@H](Cc1ccc(O)c(O)c1)C(=O)O [LITHOSPERMIC ACID] |  |  |  | 
5.02 | 7.40 | 7.18 | < 5.00 | 7.15 | O=C(/C=C/c1ccc(O)c(O)c1/C=C/c1ccc(O)c(O)c1)O[C@H](Cc1ccc(O)c(O)c1)C(=O)O [SALVIANOLIC ACID A] |  |  |  | 
